What was measured:
OATP2B1 [1] = target: T1, OATP2B1 (Homo sapiens, UniProt O94956); test: Inhibition of OATP2B1-mediated estrone 3-sulfate uptake in MDCKII-OATP2B1 cells; assay type: cell-based; conditions: 0 to 316 μM
T1 sequence (O94956 1-709): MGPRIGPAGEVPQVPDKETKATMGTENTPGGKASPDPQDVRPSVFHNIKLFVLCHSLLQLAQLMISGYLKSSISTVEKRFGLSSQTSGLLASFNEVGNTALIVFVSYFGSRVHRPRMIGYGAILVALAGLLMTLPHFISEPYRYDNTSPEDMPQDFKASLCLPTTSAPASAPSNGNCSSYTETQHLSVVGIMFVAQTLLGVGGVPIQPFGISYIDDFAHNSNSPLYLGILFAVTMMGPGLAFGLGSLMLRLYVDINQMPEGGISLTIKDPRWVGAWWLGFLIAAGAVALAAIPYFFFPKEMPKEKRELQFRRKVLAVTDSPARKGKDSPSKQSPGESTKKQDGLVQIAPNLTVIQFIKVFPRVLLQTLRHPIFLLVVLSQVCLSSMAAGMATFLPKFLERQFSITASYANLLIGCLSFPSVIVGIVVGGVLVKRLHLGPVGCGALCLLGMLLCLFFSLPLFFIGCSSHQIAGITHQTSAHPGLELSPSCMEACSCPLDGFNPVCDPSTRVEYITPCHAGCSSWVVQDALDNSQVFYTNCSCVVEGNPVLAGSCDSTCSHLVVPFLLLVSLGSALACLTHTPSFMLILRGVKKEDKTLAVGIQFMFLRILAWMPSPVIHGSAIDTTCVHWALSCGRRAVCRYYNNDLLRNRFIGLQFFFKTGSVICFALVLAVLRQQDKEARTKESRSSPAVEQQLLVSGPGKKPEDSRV

OATP2B1 [2] = target: T1, OATP2B1; conditions: OATP2B1-overexpressing Xenopus laevis oocytes; cited from earlier work

COc1ccc([C@@H]2CC(=O)c3c(O)cc(O[C@@H]4O[C@H](CO[C@@H]5O[C@@H](C)[C@H](O)[C@@H](O)[C@H]5O)[C@@H](O)[C@H](O)[C@H]4O)cc3O2)cc1O [Hesperidin, hesperidin]
inhibition at the concentrations tested (OATP2B1 [1]): no inhibition | IC50 (OATP2B1 [2]): 1920 nM

From paper PMC5397323 (Biopharmaceutics & drug disposition, 2017)
